Results from publication PMC11280037, “Inhibition of Enzyme and Bacteria Activities in Diabetic Ulcer-like Scenarios via WAAPV-Loaded Electrospun Fibers” (Pharmaceutics, 2024).
Read-outs that look alike come from different tables or passages of the source. Where a SMILES comes first, the peptide text is derived from it. Where no end group is shown, it is not given here.

Columns and labels:
[1] = test system: human neutrophil elastase (HNE); experiment: HNE inhibition by peptide-loaded electrospun fibers; format: biochemical; conditions: AAPV from PCL electrospun fibers, PBS, 37 °C
[2] = test system: human neutrophil elastase (HNE; elastase from human leukocytes); conditions: 1 h, 37 °C, 405 nm, n = 3, cited from earlier work
Experimental: Table 1 Inhibition of HNE activity by AAPV [8] and WAAPV at varying concentrations (n = 3). | column: HNE Inhibition (%) / AAPV || AAPV presented its maximum inhibitory capacity at a concentration of 50 μg/mL, which is in accordance with previous research conducted by our team. According to Namjoshi et al., the ability of HNE to digest substrates decreases with increasing inhibitor concentrations. […] Suc ...

[3] = cited from earlier work
Source text: Static contact angle measurements are a conventional method to determine the wettability of surfaces. This method involves assessing the angle formed between the solid surface, the liquid droplet, and the vapor phase at the three-phase contact point. […] Electrospun fibers unlo ...

bacteria = conditions: effectiveness limited to concentrations over this; cited from earlier work
Source text: Despite its efficacy, the widespread pharmaceutical application of peptides faces obstacles, including limited stability in physiological settings and susceptibility to environmental factors. However, AAPV’s overall hydrophilicity (despite the presence of hydrophobic domains) tends to reduce its bioavailability and cellular tissue permeability. The attachment of hydrophobic carriers/molecules can overcome these limitations. Tryptophan (W) is an aromatic hydrophobic amino acid, which has been associated with the activation of antibacterial properties (disturbance of bacterial membra ...

S. aureus = conditions: loaded at the core of co-axial microfibers; cited from earlier work
Experimental: From the very first moments of incubation, PEG-containing fibers were the ones reporting the highest bacterial inhibitions, a minimum of ≈30% against S. aureus and ≈40% against E. coli. […] In general, the highest ratings for peptide-induced inhibition (in many instances potentiated by PEG) were ...

HNE = conditions: AAPV from co-axial wet-spun microfibers; cited from earlier work
Experimental: During the first 6 h of incubation, nearly 10% of HNE was inhibited by the peptide released from the PCL fibers. This is consistent with the data from Figure 5 since, at this point, >50% of the peptide molecules have been released. In fact, in the absence of PEG, HNE inhibition reached its maximum at this stage, maintaining the levels of enzyme activity in a constant manner until the 24 h period. […] However, considering its hydrophobic nature and affinity towards PCL, it i ...

[4] = format: physicochemical
Experimental: Thermal responses of the fibers were assessed by a thermogravimetric analysis (TGA). Weight loss was monitored as the temperature increased from 25 to 600 °C at a heating rate of 10 °C/min under a dynamic nitrogen atmosphere with a flow rate of 200 mL/min, using an STA 7200 instrument (Hitachi®, Fukuoka, Japan) and aluminum pans. Results were plotted as the percentage of weight loss vs. temperature. Water contact angles were determined using an OCA 200 goniometer, Data Physics (Filderstadt, Germany), following an adaptation of the ASTM-[…]-08 standard. Droplets of 5.0 μL of dH2O, ejected at a rate of 2.0 μL/s, were used to measure the fibers' wettability via the sessile drop method. Six measurements were conducted per type of sample. Angles were recorded immediately after drop contact with the surface (≈10 s after contact).

[5] = test system: Staphylococcus aureus ATCC 6538; format: cell-based; conditions: ATCC 6538, 24 h
Experimental: Minimum inhibitory concentration (MIC) of both peptides and PEG was determined, against S. aureus and E. coli by the broth microdilution method, based on a publication by the Clinical and Laboratory Standards Institute (CLSI) and European Committee on Antimicrobial Susceptibility Testing (EUCAST). For this test, AAPV and WAAPV were dissolved in dH2O at a concentration of 4.096 mg/mL, whereas PEG was also diluted in dH2O at 10.240 mg/mL, working as stock solutions. […] Then, a bacterium suspension at 1 × 10^6 CFUs/mL was added to the wells. Controls consisting of MHB and bacteria suspensions free from any of the active agents were produced, representing the negative and positive control samples, respectively. Absorbance readings were conducted with an EZ Read 2000 Microplate Reader at 600 nm before (0 h) and 24 h after incubation at 37 °C at 120 rpm. MIC was then perceived by the differences between the several absorbance readings. Minimum bactericidal concentrations (MBCs) were established by the culture of the same bacterium suspensions at MIC and their vicinities (dilutions before and after MIC value). Aliquots were collected and diluted in PBS (10^−1–10^−4). Then, the aliquots were plated in TSA and incubated at 37 °C during 24 h, after which the grown colonies were observed and counted.

[6] = format: physicochemical; conditions: not told
Experimental: The fibers’ capacity for air exchange (permeability) was examined according to standard ISO 9237 [24]. Air pressure of 200 Pa was applied on three samples of each typology in three randomly selected points of 1.33 cm^2 (1.30 cm diameter), and the permeability was measured. For determining the porosity (P%) of the samples [25], measurements of the amount of ethanol absorbed after 1 h of immersion in static conditions and RT (Equation (1)) were used:(1) P(%)=Ww−WD/ρEthanolVSample×100, where WW and WD are the weight of the wet and dry samples, respectively; ρethanol is the density of the ethanol at RT (0.789 g/cm^3); and Vsample is the volume of the wet sample, determined by measuring the 6 mm diameter samples’ thickness with a pachymeter. The experiment was performed in triplicate.

CC(C)[C@H](NC(=O)[C@@H]1CCCN1C(=O)[C@H](C)NC(=O)[C@H](C)N)C(=O)O (H-AAPV-OH)
main degradation step of free peptide: 200 °C

CC(C)[C@H](NC(=O)[C@@H]1CCCN1C(=O)[C@H](C)NC(=O)[C@H](C)N)C(=O)O [AAPV, alanine–alanine–proline–valine] (H-AAPV-OH)
time of maximum HNE inhibition [1]: 6 h | HNE Inhibition ([2]; AAPV 0.10 μg/mL): 0.79 ± 0.008% | HNE Inhibition ([2]; AAPV 0.20 μg/mL): 2.37 ± 0.007% | HNE Inhibition ([2]; AAPV 0.39 μg/mL): 3.43 ± 0.005% | HNE Inhibition ([2]; AAPV 0.78 μg/mL): 4.07 ± 0.004% | HNE Inhibition ([2]; AAPV 1.56 μg/mL): 6.43 ± 0.005% | HNE Inhibition ([2]; AAPV 3.13 μg/mL): 8.07 ± 0.007% | HNE Inhibition ([2]; AAPV 6.25 μg/mL): 8.84 ± 0.002% | HNE Inhibition ([2]; AAPV 12.50 μg/mL): 9.56 ± 0.011% | HNE Inhibition ([2]; AAPV 25.00 μg/mL): 12.69 ± 0.002% | HNE Inhibition ([2]; AAPV 50.00 μg/mL): 16.89 ± 0.010% | HNE Inhibition ([2]; AAPV 100.00 μg/mL): 9.53 ± 0.010% | HNE Inhibition ([2]; AAPV 200.00 μg/mL, substrate N-MeO-Suc-Ala-Ala-Pro-Val-p-NA, 0.1 M Tris-HCl, HNE 45 mU): 5.74 ± 0.010% | hydrophilicity of overall structure [3]: hydrophilic | effective antimicrobial concentration (bacteria): over 2 mg/mL | S. aureus inhibitory activity (S. aureus): found to potentiate this inhibitory activity against S. aureus | time of maximum HNE inhibition (HNE): 24 h

CC(C)[C@H](NC(=O)[C@@H]1CCCN1C(=O)[C@H](C)NC(=O)[C@H](C)N)C(=O)O [PCL + AAPV] (H-AAPV-OH)
mass loss before main degradation step [4]: ~8% | temperature at which (main) thermal degradation starts [4]: ≈ 335 °C

H-WAAPV-OH
main degradation step of free peptide: 200 °C

WAAPV [PCL + WAAPV]
mass loss before main degradation step [4]: < 4% | temperature at which (main) thermal degradation starts [4]: ≈ 365 °C

WAAPV [WAAPV]
MBC [5]: 2048 µg/mL | MIC [5]: 2048 µg/mL

polycaprolactone [PCL]
Air Permeability [6]: 0.523 ± 0.057 L/min | mass loss before main degradation step [4]: < 4% | temperature at which (main) thermal degradation starts [4]: ≈ 370 °C | temperature range of main thermal degradation [4]: 370-435 °C
